Six molecules from patent US6531505B2, “Immunosuppressive agents” (priority 1998, dated 2003) can be followed below.

“Also recorded” adds a separate entry of the source.

Assay [1] has as its system NPC isolated from liver injury mice. In words: ALT-releasing assay, co-culture of HC with pre-treated NPC. The format is cell-based. The conditions noted are these: for ALT activity in supernatants of HC co-cultured with pre-treated NPC: Example 5 Experiment 2, NPC incubated with test compound 1 hour, co-culture 3 hours, FIG. 6. The protocol:
HC and NPC were isolated from mice 12 hours after elicitation of liver injury. Thus obtained HC was suspended in WE medium, and was seeded onto 96-wells microplates (2×10^4 cells/0.2 ml/wells), and incubated at 37° C. for 5 hours with 5% (v/v) CO2 in air. After incubation, the HC was washed twice with WE medium and co-cultured with NPC of 8×10^4 cells for 3 hours. NPC was pre-incubated for 1 hour at 37° C. with various concentration of astilbin or RSG ext. After co-culture, the supernatants were collected for assaying ALT and AST activities by the conventional methods.
HC and NPC were isolated from liver injury mice 12 hours after elicitation, as the same manner described in Experiment 4. Thus the HC was suspended in WE medium, and was seeded onto 96-wells microplates (2×10^4 cells/0.2 ml/wells), and incubated at 37° C. for 5 hours with 5% (v/v) CO2 in air. After incubation, the HC was washed twice with WE medium and co-cultured with NPC of 8×10^4 cells, which were pre-treated with 5×10^−5 g/ml of astilbin or RSG ext for 5, 15, 30, 60 and 120 minutes respectively, at 37° C. for 3 hours. After co-culture, the supernatants were collected for assaying the ALT activity by the conventional methods.
HC (2×10^4 cells/0.2 ml/wells in WE medium) were seeded onto 96-well microplates and incubated at 37° C. with 5% (v/v) CO2 in air.
On the other hand, NPC was incubated in the medium with or without test compounds for 1 hour. The test compounds were smitilbin of the formula (I-a), astilbin of the formula (I-b), engeletin of the formula (I-c), and eucryphin of formula (I-d), respectively.
After 5 hours of the incubation, each monolayers of HC were washed twice with the medium, and then 8×10^4 cells of NPC, pre-treated with or without above test compounds, were added. After 3 hours of further incubation, the supernatants were collected and used for assaying the ALT activity by the conventional methods.

Assay [2] relates to HC isolated from normal mice, treated with CCl4. In words: Hepatoprotection studies on CCl4-induced hepatocyte damage. The format is cell-based. The conditions noted are these: 5×10^−6 to 1×10^−4 g/ml, HC treated 2 hours, then 0.2% CCl4 1 hour. As for the experimental part: HC was isolated from the normal mice used in Experiment 8 above. The cells were treated for 2 hours with astilbin or RSG ext, then washed twice with WE medium solution. After washing, 0.1 ml of 0.2% CCl4 in olive oil was added to the cells, and the resulting cells were incubated for 1 hour. The ALT activity in the supernatants was determined by the conventional methods.
HC isolated from the normal mice was used. The cells were treated for 2 hours with test compounds. After treatment, the cells were washed twice, and incubated for 1 hour after addition of 0.1 ml of 0.2% CCl4. The obtained supernatants were collected for assaying the ALT activity by the conventional methods. For the control studies, non-treated HC with test compounds were used.

In assay [3] the test system is HC isolated from liver injury mice. Briefly: ALT-releasing assay, co-culture of NPC with pre-treated HC. The format is cell-based. The conditions noted are these: HC pre-treated with high concentration for more than 2 hours. As for the experimental part:
HC in WE medium was incubated with or without test compounds for 1 hour. Then, the HC was seeded onto 96-well microplates (2×10^4 cells/0.2 ml/wells) and incubated at 37° C. with 5% (v/v) CO2 in air for 5 hours. After 5 hours, HC monolayers were washed twice with the medium, and then 8×10^4 cells of NPC were added. […] The test compounds were the same ones as described in Experiment 2, above.

The test system of assay [4] is total NPC isolated from liver injury mice. Briefly: Apoptosis measurement No. 1, counting of apoptotic cells (Hoechst 33342). The format is cell-based. The conditions noted are these: 5×10^−5 g/ml, 1 hour, 37° C., NPC from liver injury mice 12 hours after elicitation, FIG. 1. As for the experimental part:
(§1) HC and NPC isolated from liver injury mice 12 hours after elicitation, and fraction of adherent cells and non-adherent cells isolated from NPC were used. These cells were incubated with 5×10^−5 g/ml of astilbin and RSG ext, as the testing compounds, in RPMI 1640 medium at 37° C. for 1 hour, respectively. After incubation, the cells were stained with Hoechst 33342 (Molecular Probes, Inc., USA) for 1 minute at room temperature. After washed three times with RPMI 1640 medium, the obtained cells were fixed with 2% formaldehyde in phosphate buffer solution (PBS). The apoptotic cells among the total population were determined by counting a total of 200 cells in five different fields under fluorescent microscope. For the control studies, the cells treated without test compounds were incubated and followed by the same manner.

The subject of assay [5] is CCl4-induced liver injury in mice. Briefly: Hepatoprotection studies on CCl4-induced liver injury in mice. The format is in vivo, ICR male mice. The conditions noted are these: for ALT / AST: serum, 20 hours after CCl4.
Experimental: ICR male mice (8 mice for each group) were used. Astilbin (50 or 100 mg/kg) and RSG ext (100 or 200 mg/kg) were administered orally for 6 days. One hour after final administration, mice were intraperitoneally injected with 0.2% CCl4 in olive oil (0.2 ml/20 g of body weight).
For the control studies, only CCl4 injected mice without drug administration were used.
Then, 20 hours after administration of CCl4, the blood samples were collected, and used for determining the serum ALT and the serum AST activities by the conventional methods.
Assay [6] has as its system NPC isolated from liver injury mice. In words: Apoptosis measurement No. 2, DNA fragmentation assay (gel agarose electrophoresis). Type of assay: cell-based. The conditions noted are these: 5×10^−5 g/ml, 1 hour, NPC from liver injury mice 12 hours after elicitation.
Assay [7] concerns NPC and spleen cells isolated from normal mice. Described as above. Type of assay: cell-based. The conditions noted are these: 5×10^−5 g/ml, 1 hour.
Assay [8] relates to non-adherent cells isolated from NPC. In words: Apoptosis measurement No. 1, counting of apoptotic cells (Hoechst 33342). Type of assay: cell-based, mice. The conditions noted are these: 5×10^−5 g/ml, 1 hour, 37° C., FIG. 1. As for the experimental part: as §1, with “Additionally, a part of NPC was incubated on the culture plate for 3 hours in order to separate adherent cells from non-adherent cells. […] HC” for “HC”

Assay [9] deals with adherent cells isolated from NPC. Described as above. The format is cell-based, mice. The conditions noted are these: 5×10^−5 g/ml, 1 hour, 37° C., FIG. 1. As for the experimental part:
as §1, with “Additionally, a part of NPC was incubated on the culture plate for 3 hours in order to separate adherent cells from non-adherent cells. […] HC” for “HC”

The test system of assay [10] is mice with liver injury induced by delayed-type hypersensitivity (DTH) reaction. In words: Studies for drug administration time (induction phase and effector phase). The format is in vivo. The conditions noted are these: for histopathological examination of liver (inflammatory infiltration, hepatocellular coagulation necrosis): 18 hours after injection of picryl chloride into liver; for serum ALT activity: FIG. 5. The protocol: The liver injury was induced by the same manner as described in Experiment 1. To determine the effects of astilbin and RSG ext on the induction phase (during sensitization) and effector phase (after elicitation of liver injury), astilbin (50 and 100 mg/kg) and RSG ext (100 and 200 mg/kg) were administered orally to the mice for once a day after 10 days from the 1st sensitization, and for 3 times at 0, 5 and 10 hours after elicitation, respectively.
For the control studies, mice without drug administration were used, and for the positive control studies, 10 mg/kg cyclophosphamide (Cy) was administered percutaneously to the mice.
18 hours after the injection of picryl chloride into liver, the blood samples were collected for determining the serum ALT activity by the conventional methods. Histopathological examination of liver was also performed.

Where [11] appears, read: dose 50 mg/kg orally for 6 days.
Setting [12] is: dose 100 mg/kg orally for 6 days.
Where [13] appears, read: NPC pre-incubated 1 hour with various concentrations, co-culture with HC 3 hours, FIG. 2.

Take `C[C@@H]1O[C@@H](Oc2coc3cc(O)cc(O)c3c2=O)[C@H](O)[C@H](O)[C@H]1O` [eucryphin]: the “ALT activity in supernatants of HC co-cultured with pre-treated NPC” value (“ALT activity in supernatants” below) in assay [1] was “much stronger inhibitory effect”. Moreover, the “ALT release from HC treated with CCl4” value in assay [2] is reported as “None of the test compounds”.
Consider `C[C@@H]1O[C@@H](O[C@H]2C(=O)c3c(O)cc(O)cc3O[C@@H]2c2ccc(O)c(O)c2)[C@H](O)[C@H](O)[C@H]1O` [astilbin], for which the ALT releasing entry was “not changed” in [3] and “completely inhibited” in assay [1] (5×10^−5 g/ml, pre-treatment of NPC for more than 30 minutes). The “ratio of apoptotic cells in total NPC” value in assay [4] is given as “significantly increased”. Further, the “effect on elevation of ALT and AST activities” value in assay [5] (astilbin 50 or 100 mg/kg, RSG ext 100 or 200 mg/kg orally for 6 days before CCl4) is “no effect”. In addition, the ALT came out at 901.6 ± 36.1 Karmen unit in assay [5] (setting [11]) and 921.5 ± 40.2 Karmen unit in [5] (setting [12]). The AST was 670.4 ± 21.2 Karmen unit in assay [5] (setting [11]) and 688.2 ± 45.6 Karmen unit in assay [5] (setting [12]). Further, the “DNA ladder pattern (DNA fragmentation)” value in [6] is given as “DNA ladder' pattern appeared”; in assay [7] it was “no DNA ladder' pattern appeared”. In [1] (5×10^−5 g/ml, NPC pre-incubated 1 hour, co-culture with HC 3 hours), the ALT release entry is on record as “complete inhibition”. Also, in assay [1], the “ALT activity in supernatants” value is given as “dose-dependently inhibited”. Besides, the “ALT releasing activity of NPC” value in assay [1] (setting [13]) is recorded as “dose-dependently inhibited; also recorded: stronger activity than RSG ext”. The “AST releasing activity of NPC” value in assay [1] (setting [13]) is “dose-dependently inhibited”. The “releasing of ALT from HC” value in assay [1] (NPC pre-treated with 5×10^−5 g/ml for 5, 15, 30, 60 and 120 minutes, FIG. 3) is on record as “inhibited time-dependently”. Also, the entries for the “ALT release from HC treated with CCl4” value in assay [2] and in assay [2] (listed as Astilbin) were “None of the test compounds” and “did not affect”, respectively. The “ratio of apoptotic cells in non-adherent fraction isolated from NPC” value in assay [8] is “increased”. The “ratio of apoptotic cells in the fraction of adherent cells of NPC” value in assay [9] is “no influence”. Moreover, in assay [10], the “histopathological examination of liver (inflammatory infiltration, hepatocellular coagulation necrosis)” value was “improvement of liver injury”. Moreover, the “serum ALT activity” value in [10] (high dose (astilbin 100 mg/kg, RSG ext 200 mg/kg) orally in effector phase, 3 times at 0, 5 and 10 hours after elicitation, blood 18 hours after) was “significant decrease”; in assay [10] (low dose (astilbin 50 mg/kg, RSG ext 100 mg/kg) orally in effector phase), “tendency of decreasing”.
With `C[C@@H]1O[C@@H](O[C@@H]2C(=O)c3c(O)cc(O)cc3OC2c2cc(O)cc(O)c2)[C@H](O)[C@H](O)[C@H]1O` (stereo partly drawn) [smitilbin], the “ALT activity in supernatants” value in [1] was “dose-dependently inhibited”. The “ALT release from HC treated with CCl4” value in assay [2] is on record as “None of the test compounds”.
Take `O=P1(N(CCCl)CCCl)NCCCO1` (stereo not drawn) [cyclophosphamide, reference compound]: the “serum ALT activity” value in [10] (10 mg/kg, given in both induction and effector phases, positive control) is listed as “significant decrease”. For the same molecule, in assay [10], the “histopathological examination of liver (inflammatory infiltration, hepatocellular coagulation necrosis)” value is “improvement of liver injury”.
Take `C[C@@H]1O[C@@H](O[C@H]2C(=O)c3c(O)cc(O)cc3O[C@@H]2c2ccc(O)cc2)[C@H](O)[C@H](O)[C@H]1O` [engeletin]: the “ALT activity in supernatants” value in [1] was “dose-dependently inhibited”. Moreover, in assay [2], the “ALT release from HC treated with CCl4” value is “None of the test compounds”.
As to `COC(=O)c1cc(OC)c2c(c1-c1c(C(=O)OC)cc(OC)c3c1OCO3)OCO2` [BDD, biphenyl dimethyl dicarboxylate, reference compound], the ALT elevation entry in assay [5] (150 mg/kg orally, positive control) is on record as “significantly decreased”. In addition, in [5] (dose 150 mg/kg orally), the ALT is 510.7 ± 27.0 Karmen unit and the AST came to 675.6 ± 80.9 Karmen unit.
